Tests used:
Format in all cases: in vivo
Scirpus juncoides = test: Test Example 1: herbicidal activity, application before weed generation in submerged conditions (symbol B); details: application herbicide amount 320 g/ha
Outline: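 In a flooded pot test with alluvial soil, the emulsion-formulated compound was diluted with water to a predetermined amount and applied to the floodwater immediately on the sowing day. Pots were held in a greenhouse at 25–30 °C for 3 weeks before each weed was rated.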

Leptochloa chinensis = test: Test Example 3: herbicidal effect by foliage application, Wagner pot (symbol D); details: application herbicide amount 320 g/ha
Outline: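 Scoring took place 3 weeks after application, using fixed criteria. Plants had been raised from seed for 14 days at 25 to 30 °C in submerged alluvial soil before a diluted emulsion of the test compound was sprayed uniformly on the leaves.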

[1] = tested on: directly sowed rice plant; test: Test Example 3: effect on crop by foliage application, Wagner pot (symbol b); details: application herbicide amount 320 g/ha
Outline: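 Steps: fill a 1/10000-are Wagner pot with alluvial soil; add water and mix to submerge at 0.1–0.5 cm depth; sow rice plus Echinochloa crus-galli var. crus-galli, Leptochloa chinensis and Cyperus difformis; grow in a 25–30 °C greenhouse.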

Alopecurus myosuroides [2] = test: Test Example 4: herbicidal effect by soil treatment (symbol J); details: application herbicide amount 320 g/ha
Outline: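 Seeds were sown in sterilized diluvial soil, covered with about 1.5 cm of soil, and the soil surface was sprayed with a water-diluted emulsion of the compound at a predetermined rate. Plants grew in a greenhouse at 25° C. to 30° C.; effects were scored visually 3 weeks after application.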

soybean = test: Test Example 4: effect on crop by soil treatment (symbol d); details: application herbicide amount 320 g/ha
Outline: (§1)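 Plants grew in a 25° C. to 30° C. greenhouse after spot-sowing of seeds, including beet, rapeseed, wheat and rice, into sterilized diluvial soil under roughly 1.5 cm of cover soil.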

rice = test: Test Example 4: effect on crop by soil treatment (symbol b); details: application herbicide amount 320 g/ha
Outline: as §1

beet = test: Test Example 4: effect on crop by soil treatment (symbol f); details: application herbicide amount 320 g/ha
Outline: as §1

Digitaria ciliaris = test: Test Example 5: herbicidal effect by foliage application, plastic box (symbol F); details: 320 g/ha, 3 weeks after application
Outline: (§2)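 Emulsion formulation, diluted with water to the intended rate, was applied uniformly to leaves by small sprayer. Recipients were 14-day greenhouse-grown seedlings (25° C. to 30° C.). Assessment followed at 3 weeks.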

[3] = tested on: Echinochloa crus-galli var. crus-galli; test: Test Example 5: herbicidal effect by foliage application, plastic box (symbol H); details: 320 g/ha, 3 weeks after application
Outline: as §2

Alopecurus myosuroides [4] = test: Test Example 5: herbicidal effect by foliage application, plastic box (symbol J); details: 320 g/ha, 3 weeks after application
Outline: as §2

Apera spica-venti = test: Test Example 5: herbicidal effect by foliage application, plastic box (symbol L); details: 320 g/ha, 3 weeks after application
Outline: as §2

Chenopodium album = test: Test Example 5: herbicidal effect by foliage application, plastic box (symbol O); details: 320 g/ha, 3 weeks after application
Outline: as §2

Galium spurium = test: Test Example 5: herbicidal effect by foliage application, plastic box (symbol Q); details: 320 g/ha, 3 weeks after application
Outline: as §2

rapeseed = test: Test Example 5: effect on crop by foliage application, plastic box (symbol g); details: 320 g/ha, 3 weeks after application
Outline: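 Greenhouse culture at 25° C. to 30° C. followed spot-like sowing into sterilized diluvial soil, with seed covered by roughly 1.5 cm of soil.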

CC#Cc1cc(C)c(C2=C(O)CC(CC(C)=NOC)C2=O)c(CC)c1 (mixture of isomers) [6-006]
Herbicidal effect grade, B: Scirpus juncoides (Scirpus juncoides): 5 (Herbicidal ratio of 90% or more (almost completely withered))
herbicidal effect on D (Leptochloa chinensis), grade 0-5 (Leptochloa chinensis): 5 (Herbicidal ratio of 90% or more (almost completely withered))
effect on crop b (directly sowed rice plant), grade 0-5 [1]: 5 (Herbicidal ratio of 90% or more (almost completely withered))
J: Alopecurus myosuroides, herbicidal effect grade (Alopecurus myosuroides [2]): 5 (Herbicidal ratio of 90% or more (almost completely withered))
d: soybean, effect on crop grade (soybean): 0 (Herbicidal ratio of 5% or lower (almost no effect))
b: directly sowed rice plant, effect on crop grade (rice): 5 (Herbicidal ratio of 90% or more (almost completely withered))
f: beet, effect on crop grade (beet): 0 (Herbicidal ratio of 5% or lower (almost no effect))
F: Digitaria ciliaris, herbicidal effect grade (Digitaria ciliaris): 3 (Herbicidal ratio of 40% or higher and lower than 70%)
H: Echinochloa crus-galli var. crus-galli, herbicidal effect grade [3]: 4 (Herbicidal ratio of 70% or higher and lower than 90%)
J: Alopecurus myosuroides, herbicidal effect grade (Alopecurus myosuroides [4]): 5 (Herbicidal ratio of 90% or more (almost completely withered))
L: Apera spica-venti, herbicidal effect grade (Apera spica-venti): 3 (Herbicidal ratio of 40% or higher and lower than 70%)
O: Chenopodium album, herbicidal effect grade (Chenopodium album): 0 (Herbicidal ratio of 5% or lower (almost no effect))
Q: Galium spurium, herbicidal effect grade (Galium spurium): 0 (Herbicidal ratio of 5% or lower (almost no effect))
g: rapeseed, effect on crop grade (rapeseed): 4 (Herbicidal ratio of 70% or higher and lower than 90%)

CON=C(C)CC1CC(O)=C(c2c(C)cc(-c3ccccc3)cc2C)C1=O (stereo not shown) [6-015]
Herbicidal effect grade, B: Scirpus juncoides (Scirpus juncoides): 5 (Herbicidal ratio of 90% or more (almost completely withered))
herbicidal effect on D (Leptochloa chinensis), grade 0-5 (Leptochloa chinensis): 5 (Herbicidal ratio of 90% or more (almost completely withered))
effect on crop b (directly sowed rice plant), grade 0-5 [1]: 5 (Herbicidal ratio of 90% or more (almost completely withered))
J: Alopecurus myosuroides, herbicidal effect grade (Alopecurus myosuroides [2]): 5 (Herbicidal ratio of 90% or more (almost completely withered))
d: soybean, effect on crop grade (soybean): 0 (Herbicidal ratio of 5% or lower (almost no effect))
b: directly sowed rice plant, effect on crop grade (rice): 5 (Herbicidal ratio of 90% or more (almost completely withered))
f: beet, effect on crop grade (beet): 0 (Herbicidal ratio of 5% or lower (almost no effect))
F: Digitaria ciliaris, herbicidal effect grade (Digitaria ciliaris): 5 (Herbicidal ratio of 90% or more (almost completely withered))
H: Echinochloa crus-galli var. crus-galli, herbicidal effect grade [3]: 5 (Herbicidal ratio of 90% or more (almost completely withered))
J: Alopecurus myosuroides, herbicidal effect grade (Alopecurus myosuroides [4]): 5 (Herbicidal ratio of 90% or more (almost completely withered))
L: Apera spica-venti, herbicidal effect grade (Apera spica-venti): 5 (Herbicidal ratio of 90% or more (almost completely withered))
O: Chenopodium album, herbicidal effect grade (Chenopodium album): 4 (Herbicidal ratio of 70% or higher and lower than 90%)
Q: Galium spurium, herbicidal effect grade (Galium spurium): 2 (Herbicidal ratio of 20% or higher and lower than 40%)
g: rapeseed, effect on crop grade (rapeseed): 4 (Herbicidal ratio of 70% or higher and lower than 90%)

CCC(CCC1CC(O)=C(c2c(C)cc(C)cc2C)C1=O)=NOC (mixture of isomers) [4-001]
Herbicidal effect grade, B: Scirpus juncoides (Scirpus juncoides): 0 (Herbicidal ratio of 5% or lower (almost no effect))
herbicidal effect on D (Leptochloa chinensis), grade 0-5 (Leptochloa chinensis): 3 (Herbicidal ratio of 40% or higher and lower than 70%)
effect on crop b (directly sowed rice plant), grade 0-5 [1]: 4 (Herbicidal ratio of 70% or higher and lower than 90%)
J: Alopecurus myosuroides, herbicidal effect grade (Alopecurus myosuroides [2]): 3 (Herbicidal ratio of 40% or higher and lower than 70%)
d: soybean, effect on crop grade (soybean): 0 (Herbicidal ratio of 5% or lower (almost no effect))
b: directly sowed rice plant, effect on crop grade (rice): 5 (Herbicidal ratio of 90% or more (almost completely withered))
f: beet, effect on crop grade (beet): 0 (Herbicidal ratio of 5% or lower (almost no effect))
F: Digitaria ciliaris, herbicidal effect grade (Digitaria ciliaris): 3 (Herbicidal ratio of 40% or higher and lower than 70%)
H: Echinochloa crus-galli var. crus-galli, herbicidal effect grade [3]: 2 (Herbicidal ratio of 20% or higher and lower than 40%)
J: Alopecurus myosuroides, herbicidal effect grade (Alopecurus myosuroides [4]): 5 (Herbicidal ratio of 90% or more (almost completely withered))
L: Apera spica-venti, herbicidal effect grade (Apera spica-venti): 2 (Herbicidal ratio of 20% or higher and lower than 40%)
O: Chenopodium album, herbicidal effect grade (Chenopodium album): 0 (Herbicidal ratio of 5% or lower (almost no effect))
Q: Galium spurium, herbicidal effect grade (Galium spurium): 0 (Herbicidal ratio of 5% or lower (almost no effect))

CCC(=O)CCC1CC(OC)=C(c2c(C)cc(C)cc2C)C1=O (stereo not shown) [5-002]
Herbicidal effect grade, B: Scirpus juncoides (Scirpus juncoides): 0 (Herbicidal ratio of 5% or lower (almost no effect))
herbicidal effect on D (Leptochloa chinensis), grade 0-5 (Leptochloa chinensis): 0 (Herbicidal ratio of 5% or lower (almost no effect))
effect on crop b (directly sowed rice plant), grade 0-5 [1]: 0 (Herbicidal ratio of 5% or lower (almost no effect))
J: Alopecurus myosuroides, herbicidal effect grade (Alopecurus myosuroides [2]): 0 (Herbicidal ratio of 5% or lower (almost no effect))
d: soybean, effect on crop grade (soybean): 0 (Herbicidal ratio of 5% or lower (almost no effect))
b: directly sowed rice plant, effect on crop grade (rice): 0 (Herbicidal ratio of 5% or lower (almost no effect))
f: beet, effect on crop grade (beet): 0 (Herbicidal ratio of 5% or lower (almost no effect))
F: Digitaria ciliaris, herbicidal effect grade (Digitaria ciliaris): 0 (Herbicidal ratio of 5% or lower (almost no effect))
H: Echinochloa crus-galli var. crus-galli, herbicidal effect grade [3]: 0 (Herbicidal ratio of 5% or lower (almost no effect))
J: Alopecurus myosuroides, herbicidal effect grade (Alopecurus myosuroides [4]): 0 (Herbicidal ratio of 5% or lower (almost no effect))
L: Apera spica-venti, herbicidal effect grade (Apera spica-venti): 0 (Herbicidal ratio of 5% or lower (almost no effect))
O: Chenopodium album, herbicidal effect grade (Chenopodium album): 0 (Herbicidal ratio of 5% or lower (almost no effect))
Q: Galium spurium, herbicidal effect grade (Galium spurium): 0 (Herbicidal ratio of 5% or lower (almost no effect))

CCc1cc(C)cc(C)c1C1=C(O)CC(CC(C)=NOC)C1=O (stereo not shown) [6-007]
Herbicidal effect grade, B: Scirpus juncoides (Scirpus juncoides): 5 (Herbicidal ratio of 90% or more (almost completely withered))
herbicidal effect on D (Leptochloa chinensis), grade 0-5 (Leptochloa chinensis): 5 (Herbicidal ratio of 90% or more (almost completely withered))
effect on crop b (directly sowed rice plant), grade 0-5 [1]: 5 (Herbicidal ratio of 90% or more (almost completely withered))
J: Alopecurus myosuroides, herbicidal effect grade (Alopecurus myosuroides [2]): 5 (Herbicidal ratio of 90% or more (almost completely withered))
d: soybean, effect on crop grade (soybean): 0 (Herbicidal ratio of 5% or lower (almost no effect))
b: directly sowed rice plant, effect on crop grade (rice): 5 (Herbicidal ratio of 90% or more (almost completely withered))
f: beet, effect on crop grade (beet): 0 (Herbicidal ratio of 5% or lower (almost no effect))
F: Digitaria ciliaris, herbicidal effect grade (Digitaria ciliaris): 5 (Herbicidal ratio of 90% or more (almost completely withered))
H: Echinochloa crus-galli var. crus-galli, herbicidal effect grade [3]: 5 (Herbicidal ratio of 90% or more (almost completely withered))
J: Alopecurus myosuroides, herbicidal effect grade (Alopecurus myosuroides [4]): 5 (Herbicidal ratio of 90% or more (almost completely withered))
L: Apera spica-venti, herbicidal effect grade (Apera spica-venti): 4 (Herbicidal ratio of 70% or higher and lower than 90%)
O: Chenopodium album, herbicidal effect grade (Chenopodium album): 0 (Herbicidal ratio of 5% or lower (almost no effect))
Q: Galium spurium, herbicidal effect grade (Galium spurium): 0 (Herbicidal ratio of 5% or lower (almost no effect))
